The values that follow come from ChEMBL document CHEMBL5465560, “Selectivity Literature for EUbOPEN Chemogenomic Library” (2024).

In experiment [1] the target is Phosphatidylinositol 4-phosphate 5-kinase type-1 gamma (Homo sapiens) (UniProt O60331). Description: Selectivity interaction (KinomeScan (DiscoverX)) EUB0000666a PIP5K1C. The conditions noted are these: at 10 µM.
Experiment [2] addresses Platelet-derived growth factor receptor beta (Homo sapiens, UniProt P09619). Put plainly: Selectivity interaction (KinomeScan (DiscoverX)) EUB0000607a PDGFRB. The settings on record: at 10 µM.
The target in experiment [3] is Protein kinase C beta type (Homo sapiens, UniProt P05771). Description: Selectivity interaction (Kinase screening (Upstate/Millipore)) EUB0000604a PRKCB.
Protein kinase C beta type, sequence (P05771 2-671 limits assumed): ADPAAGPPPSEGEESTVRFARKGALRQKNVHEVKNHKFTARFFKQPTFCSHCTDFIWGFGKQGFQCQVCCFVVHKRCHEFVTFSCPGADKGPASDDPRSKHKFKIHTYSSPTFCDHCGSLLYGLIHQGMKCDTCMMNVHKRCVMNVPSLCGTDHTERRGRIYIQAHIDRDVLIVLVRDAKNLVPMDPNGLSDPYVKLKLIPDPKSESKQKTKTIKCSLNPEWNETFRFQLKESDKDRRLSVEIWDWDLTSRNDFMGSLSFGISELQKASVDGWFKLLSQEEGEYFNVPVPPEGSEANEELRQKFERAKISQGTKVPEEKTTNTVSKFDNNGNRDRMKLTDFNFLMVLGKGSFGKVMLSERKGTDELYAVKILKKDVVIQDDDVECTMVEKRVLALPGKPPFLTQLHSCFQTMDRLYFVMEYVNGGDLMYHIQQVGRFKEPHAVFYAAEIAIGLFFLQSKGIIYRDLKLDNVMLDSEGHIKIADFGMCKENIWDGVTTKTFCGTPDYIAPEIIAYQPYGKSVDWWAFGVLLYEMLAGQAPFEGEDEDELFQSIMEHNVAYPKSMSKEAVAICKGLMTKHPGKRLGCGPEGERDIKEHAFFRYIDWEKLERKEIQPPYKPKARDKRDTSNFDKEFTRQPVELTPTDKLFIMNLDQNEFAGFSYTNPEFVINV
Experiment [4] concerns the target Casein kinase I isoform delta (Homo sapiens, UniProt P48730). Description: Selectivity interaction (Kinase panel (DSF assay)) EUB0001559a CSNK1D.
The target of experiment [5] is T1, Lymphokine-activated killer T-cell-originated protein kinase (Homo sapiens) (UniProt Q96KB5).
T1 sequence (whole entry): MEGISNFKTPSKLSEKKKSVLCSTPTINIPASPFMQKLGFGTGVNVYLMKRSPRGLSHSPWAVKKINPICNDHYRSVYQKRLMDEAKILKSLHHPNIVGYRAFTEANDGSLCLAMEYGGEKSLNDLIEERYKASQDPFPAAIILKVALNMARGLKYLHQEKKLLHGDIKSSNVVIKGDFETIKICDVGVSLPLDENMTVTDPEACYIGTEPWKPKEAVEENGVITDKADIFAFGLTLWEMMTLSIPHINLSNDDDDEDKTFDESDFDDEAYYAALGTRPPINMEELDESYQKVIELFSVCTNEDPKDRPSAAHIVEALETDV
Put plainly: Selectivity interaction (Kinase panel (DSF assay)) EUB0001559a PBK. Background: DSF heats the sample and reads unfolding from a dye or from intrinsic fluorescence.

For experiment [6], the target named is T2, Phosphatidylinositol 4,5-bisphosphate 3-kinase catalytic subunit delta isoform (Homo sapiens) (UniProt O00329).
T2 sequence (whole entry): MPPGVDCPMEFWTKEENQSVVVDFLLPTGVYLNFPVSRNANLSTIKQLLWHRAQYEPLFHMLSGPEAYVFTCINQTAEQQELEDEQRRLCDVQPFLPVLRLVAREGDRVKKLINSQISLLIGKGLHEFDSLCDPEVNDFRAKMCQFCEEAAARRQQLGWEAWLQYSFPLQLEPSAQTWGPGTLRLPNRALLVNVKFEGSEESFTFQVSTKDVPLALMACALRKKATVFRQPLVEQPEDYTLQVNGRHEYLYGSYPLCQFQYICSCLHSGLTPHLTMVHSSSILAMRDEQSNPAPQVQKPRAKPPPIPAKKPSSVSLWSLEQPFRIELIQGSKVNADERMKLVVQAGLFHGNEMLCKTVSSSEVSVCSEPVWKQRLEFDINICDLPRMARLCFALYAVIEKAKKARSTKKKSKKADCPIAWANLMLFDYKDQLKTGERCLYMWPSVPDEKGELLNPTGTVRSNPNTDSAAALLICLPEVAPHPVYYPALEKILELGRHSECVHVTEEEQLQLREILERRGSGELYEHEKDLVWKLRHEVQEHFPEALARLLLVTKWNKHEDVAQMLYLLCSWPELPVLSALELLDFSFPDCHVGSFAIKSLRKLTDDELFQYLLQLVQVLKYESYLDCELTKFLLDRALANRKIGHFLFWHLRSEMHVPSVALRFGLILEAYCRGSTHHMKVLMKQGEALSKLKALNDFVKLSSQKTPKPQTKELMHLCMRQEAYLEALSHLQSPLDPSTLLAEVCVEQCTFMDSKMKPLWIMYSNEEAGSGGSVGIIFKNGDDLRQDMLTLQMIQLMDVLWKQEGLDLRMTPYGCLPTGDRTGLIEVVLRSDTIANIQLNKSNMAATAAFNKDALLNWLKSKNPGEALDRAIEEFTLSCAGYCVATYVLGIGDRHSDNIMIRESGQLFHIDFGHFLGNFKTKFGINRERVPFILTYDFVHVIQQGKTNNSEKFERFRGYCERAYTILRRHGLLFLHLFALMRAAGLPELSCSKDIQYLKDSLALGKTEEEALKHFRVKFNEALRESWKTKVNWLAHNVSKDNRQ
Description: Selectivity interaction (KinomeScan (DiscoverX)) EUB0000877a PIK3CD. The conditions noted are these: at 10 µM.

Experiment [7] has as its target Myosin light chain kinase, smooth muscle (Homo sapiens, UniProt Q15746). Description: Selectivity interaction (KinomeScan (DiscoverX)) EUB0000618a MYLK. The settings on record: at 10 µM.
The target of experiment [8] is Cyclin-dependent kinase 2 (Homo sapiens, UniProt P24941). Put plainly: Selectivity interaction (KinomeScan (DiscoverX)) EUB0000092b CDK2. The conditions noted are these: at 10 µM.
Experiment [9] has as its target Leukocyte tyrosine kinase receptor (Homo sapiens, UniProt P29376). Description: Selectivity interaction (KinomeScan (DiscoverX)) EUB0000092b LTK. The conditions noted are these: at 10 µM.
The target of experiment [10] is T3, SNF-related serine/threonine-protein kinase (Homo sapiens) (UniProt Q9NRH2).
T3 sequence (whole entry): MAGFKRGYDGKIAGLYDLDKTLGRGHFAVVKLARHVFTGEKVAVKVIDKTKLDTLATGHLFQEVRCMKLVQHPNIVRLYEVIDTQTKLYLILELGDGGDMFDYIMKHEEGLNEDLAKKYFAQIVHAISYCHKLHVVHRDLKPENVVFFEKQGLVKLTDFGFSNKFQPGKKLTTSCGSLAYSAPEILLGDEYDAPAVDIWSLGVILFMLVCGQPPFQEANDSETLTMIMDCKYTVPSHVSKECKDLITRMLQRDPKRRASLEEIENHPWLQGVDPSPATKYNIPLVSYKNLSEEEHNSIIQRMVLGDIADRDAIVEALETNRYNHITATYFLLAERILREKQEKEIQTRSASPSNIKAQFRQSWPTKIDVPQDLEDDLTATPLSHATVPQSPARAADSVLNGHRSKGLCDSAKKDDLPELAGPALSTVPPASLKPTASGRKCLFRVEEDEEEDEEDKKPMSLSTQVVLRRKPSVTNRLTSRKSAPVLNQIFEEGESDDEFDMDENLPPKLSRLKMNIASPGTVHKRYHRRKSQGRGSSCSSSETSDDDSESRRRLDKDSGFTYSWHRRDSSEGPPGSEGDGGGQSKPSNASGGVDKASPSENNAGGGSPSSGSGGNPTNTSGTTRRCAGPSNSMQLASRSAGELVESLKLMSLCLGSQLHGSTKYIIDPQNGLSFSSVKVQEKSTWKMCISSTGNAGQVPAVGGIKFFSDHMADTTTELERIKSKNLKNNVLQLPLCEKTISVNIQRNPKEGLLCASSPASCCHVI
Put plainly: Selectivity interaction (KinomeScan (DiscoverX)) EUB0000092b SNRK. The conditions noted are these: at 10 µM.

Casein kinase I isoform delta, sequence (P48730 whole entry, looked up, canonical isoform): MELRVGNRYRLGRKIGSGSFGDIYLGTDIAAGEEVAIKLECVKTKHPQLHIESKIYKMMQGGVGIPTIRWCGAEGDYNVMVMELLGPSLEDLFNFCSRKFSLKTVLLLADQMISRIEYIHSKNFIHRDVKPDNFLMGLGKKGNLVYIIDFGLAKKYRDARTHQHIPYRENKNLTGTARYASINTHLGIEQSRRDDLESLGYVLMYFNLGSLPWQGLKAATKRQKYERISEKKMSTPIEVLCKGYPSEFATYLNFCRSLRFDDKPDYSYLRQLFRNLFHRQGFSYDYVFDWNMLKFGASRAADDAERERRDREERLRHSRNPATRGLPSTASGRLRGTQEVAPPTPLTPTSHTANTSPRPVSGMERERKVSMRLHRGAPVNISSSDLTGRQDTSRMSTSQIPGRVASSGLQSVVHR
Phosphatidylinositol 4-phosphate 5-kinase type-1 gamma (Homo sapiens), sequence (O60331 whole entry): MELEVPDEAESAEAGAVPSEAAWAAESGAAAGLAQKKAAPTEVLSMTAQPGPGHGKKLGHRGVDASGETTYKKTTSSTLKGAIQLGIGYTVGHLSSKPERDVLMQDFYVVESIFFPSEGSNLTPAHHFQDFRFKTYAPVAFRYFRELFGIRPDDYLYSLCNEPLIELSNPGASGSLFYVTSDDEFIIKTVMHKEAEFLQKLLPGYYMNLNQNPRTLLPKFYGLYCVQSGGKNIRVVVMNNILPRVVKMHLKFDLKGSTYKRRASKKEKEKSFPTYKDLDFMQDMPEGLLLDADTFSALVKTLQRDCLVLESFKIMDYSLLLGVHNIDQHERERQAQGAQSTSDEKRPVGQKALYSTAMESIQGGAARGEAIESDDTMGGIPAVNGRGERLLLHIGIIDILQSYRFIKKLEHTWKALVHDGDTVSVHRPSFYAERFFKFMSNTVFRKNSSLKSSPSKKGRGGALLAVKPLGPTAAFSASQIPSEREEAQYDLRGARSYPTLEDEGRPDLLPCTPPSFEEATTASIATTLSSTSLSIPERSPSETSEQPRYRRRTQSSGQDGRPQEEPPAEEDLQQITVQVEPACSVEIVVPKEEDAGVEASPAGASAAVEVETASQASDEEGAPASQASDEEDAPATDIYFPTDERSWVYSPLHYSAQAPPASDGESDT
Platelet-derived growth factor receptor beta, sequence (P09619 whole entry): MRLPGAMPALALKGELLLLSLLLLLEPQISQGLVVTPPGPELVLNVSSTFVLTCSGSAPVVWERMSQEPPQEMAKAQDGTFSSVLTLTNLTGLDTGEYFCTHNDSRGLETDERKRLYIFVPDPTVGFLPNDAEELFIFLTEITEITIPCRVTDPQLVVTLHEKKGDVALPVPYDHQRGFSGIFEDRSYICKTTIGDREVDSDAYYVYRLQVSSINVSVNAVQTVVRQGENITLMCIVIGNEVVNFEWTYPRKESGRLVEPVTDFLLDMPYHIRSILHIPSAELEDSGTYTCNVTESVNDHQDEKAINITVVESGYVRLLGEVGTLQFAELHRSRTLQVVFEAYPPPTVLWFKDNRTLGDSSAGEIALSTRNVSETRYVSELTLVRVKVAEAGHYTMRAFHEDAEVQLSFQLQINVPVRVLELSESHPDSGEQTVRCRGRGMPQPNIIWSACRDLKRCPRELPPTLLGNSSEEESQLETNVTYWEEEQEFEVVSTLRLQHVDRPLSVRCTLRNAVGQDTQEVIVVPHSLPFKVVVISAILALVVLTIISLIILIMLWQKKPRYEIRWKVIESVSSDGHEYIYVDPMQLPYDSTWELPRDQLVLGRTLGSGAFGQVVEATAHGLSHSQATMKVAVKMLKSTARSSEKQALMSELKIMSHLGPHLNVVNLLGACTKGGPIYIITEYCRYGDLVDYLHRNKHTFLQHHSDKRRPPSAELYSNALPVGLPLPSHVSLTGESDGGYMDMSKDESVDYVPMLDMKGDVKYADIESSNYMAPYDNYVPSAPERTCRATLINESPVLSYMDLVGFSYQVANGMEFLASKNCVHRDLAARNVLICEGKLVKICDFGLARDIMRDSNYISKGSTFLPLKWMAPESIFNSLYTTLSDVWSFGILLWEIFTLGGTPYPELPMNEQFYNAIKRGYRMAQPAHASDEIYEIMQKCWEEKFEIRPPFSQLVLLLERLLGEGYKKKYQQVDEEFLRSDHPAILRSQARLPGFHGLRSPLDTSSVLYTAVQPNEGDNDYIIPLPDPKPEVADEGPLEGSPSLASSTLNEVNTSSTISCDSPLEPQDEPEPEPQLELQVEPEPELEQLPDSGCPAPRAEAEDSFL
Leukocyte tyrosine kinase receptor, sequence (P29376 whole entry): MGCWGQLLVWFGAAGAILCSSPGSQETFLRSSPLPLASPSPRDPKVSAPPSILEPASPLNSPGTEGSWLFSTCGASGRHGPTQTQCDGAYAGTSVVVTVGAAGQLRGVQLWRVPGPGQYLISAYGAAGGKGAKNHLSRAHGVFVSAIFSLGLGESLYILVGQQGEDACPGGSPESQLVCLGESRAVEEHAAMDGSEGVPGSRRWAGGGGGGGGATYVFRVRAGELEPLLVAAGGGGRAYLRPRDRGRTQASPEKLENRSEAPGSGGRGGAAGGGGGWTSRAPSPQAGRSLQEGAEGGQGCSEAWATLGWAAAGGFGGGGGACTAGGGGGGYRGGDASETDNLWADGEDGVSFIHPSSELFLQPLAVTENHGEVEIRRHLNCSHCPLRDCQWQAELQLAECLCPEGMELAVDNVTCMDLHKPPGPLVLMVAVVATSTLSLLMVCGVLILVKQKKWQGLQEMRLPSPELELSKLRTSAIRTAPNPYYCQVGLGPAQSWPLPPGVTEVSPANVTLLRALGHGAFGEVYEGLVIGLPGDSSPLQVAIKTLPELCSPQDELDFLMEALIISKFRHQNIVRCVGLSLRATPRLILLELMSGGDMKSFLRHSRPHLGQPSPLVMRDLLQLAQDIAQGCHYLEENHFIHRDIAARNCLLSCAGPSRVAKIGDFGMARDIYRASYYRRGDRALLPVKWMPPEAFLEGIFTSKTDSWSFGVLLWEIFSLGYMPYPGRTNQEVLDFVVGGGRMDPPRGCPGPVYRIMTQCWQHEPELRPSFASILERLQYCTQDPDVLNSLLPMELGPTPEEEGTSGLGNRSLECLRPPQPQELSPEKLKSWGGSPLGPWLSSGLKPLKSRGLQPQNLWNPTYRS

Turning to `O=C(NOC[C@H](O)CO)c1ccc(F)c(F)c1Nc1ccc(I)cc1F`, the % of control in experiment [1] came out at 100%.

The molecule `CNC(=O)Nc1ccc(-c2nc(N3CC4CCC(C3)O4)c3cnn(C4CCC5(CC4)OCCO5)c3n2)cc1` yielded a % of control in experiment [2] of 89%.

`Cc1cnc(Nc2ccc(F)cc2Cl)nc1-c1c[nH]c(C(=O)N[C@H](CO)c2cccc(Cl)c2)c1`: the % of inhibition in experiment [3] amounted to 4%.

`CN(C(=O)c1cnn2cccnc12)c1cc2c(cc1N1CCOCC1)C(=O)N(C[C@@H](F)C(C)(C)O)C2`: the dTM in [4] was -0.9 K; in experiment [5], 0.7 K.

Molecule `CCC(=O)N1CC[C@H](Nc2ncnc3c2CN(c2cnc(OC)c(C(F)(F)F)c2)CC3)C1` [LENIOLISIB] returned a % of inhibition in [6] of 100%.

Molecule `O[C@H]1CC[C@H](Nc2ncc3nc(Nc4c(F)cc(F)cc4F)n([C@H]4CCOC4)c3n2)CC1` came in with a % of control in [7] of 65%.

Regarding `CCC(=O)N1CCN(c2ccc(-n3c(=O)ccc4cnc5ccc(-c6cnc7ccccc7c6)cc5c43)cc2C(F)(F)F)CC1`, the % of control is 6.2% in experiment [8], 77% in [9] and 60% in experiment [10].
